# Results from PMC11013491, “Triterpenoids from the Leaves of Diospyros digyna and Their PTP1B Inhibitory Activity” (Molecules, 2024).
# Molecular target: T1, PTP1B (Homo sapiens, UniProt P18031)
# T1 construct: purchased Abcam, Cambridge, UK
# T1 sequence (P18031 1-435): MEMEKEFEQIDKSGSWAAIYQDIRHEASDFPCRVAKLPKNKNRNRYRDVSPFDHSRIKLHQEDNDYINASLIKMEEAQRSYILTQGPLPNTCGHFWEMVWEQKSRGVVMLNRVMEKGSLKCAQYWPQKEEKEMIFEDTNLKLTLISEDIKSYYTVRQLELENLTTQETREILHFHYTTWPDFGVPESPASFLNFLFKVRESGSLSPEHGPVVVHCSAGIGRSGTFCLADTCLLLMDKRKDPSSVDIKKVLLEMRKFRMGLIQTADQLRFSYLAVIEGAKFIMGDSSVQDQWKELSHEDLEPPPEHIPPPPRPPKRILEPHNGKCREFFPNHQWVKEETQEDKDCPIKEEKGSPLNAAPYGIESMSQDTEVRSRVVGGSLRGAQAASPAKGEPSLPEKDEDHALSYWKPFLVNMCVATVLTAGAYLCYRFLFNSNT
# Experiment: PTP1B inhibition assay (pNPP substrate)
# Format: biochemical
# Details: human recombinant PTP1B, 37 °C, 30 min, triplicate, means ± SD, read-out: PTP1B inhibitory activity IC50
# Procedure: The inhibitory activity of the isolated compounds against PTP1B (Abcam, Cambridge, UK, human recombinant) was assayed according to the method reported previously. The reagent p-nitrophenyl phosphate (pNPP) was used as the substrate, and oleanolic acid was used as the positive control. In brief, a 100 μL assay mixture containing 1 μg/mL PTP1B, samples, 4 mM pNPP, 55 mM NaCl, 2.2 mM DTT, 1.1 mM EDTA, and […] in 11 mM Tris-HCl, pH 7.5, was incubated at 37 °C for 30 min in a 96-well plate. The absorbance of 405 nm was measured by a microplate reader. Data were analyzed by GraphPad Prism v.10.2.0 software. All data were obtained in triplicate and presented as means ± SD.
row,SMILES,IC50 [µM]
1,"C[C@H]1[C@H](C)CC[C@]2(C(=O)O)CC[C@]3(C)C(=CC[C@@H]4[C@@]5(C)C[C@@H](O)[C@H](OC(=O)/C=C/c6ccc(O)cc6)C(C)(C)[C@@H]5CC[C@]43C)[C@H]12 [Compound 11, jacoumaric acid]",26.2 ± 1.31
2,"C=C1CCC2(C(=O)O)CCC3(C)C(=CCC4C5(C)CC(O)C(OC(=O)C=Cc6ccc(O)cc6)C(C)(C)C5CCC43C)C2C1C (stereo not drawn) [Compound 4, 3β-trans-p-coumaroyloxy-2α-hydroxy-12,20(30)-ursadien-28-oic acid]",48.7 ± 5.17
3,"C=C1CCC2(C(=O)O)CCC3(C)C(=CCC4C5(C)CC(O)C(OC(=O)C=Cc6ccc(O)c(OC)c6)C(C)(C)C5CCC43C)C2C1C (stereo not drawn) [Compound 5, 3β-trans-feruloyloxy-2α-hydroxy-12,20(30)-ursadien-28-oic acid]",23.7 ± 0.73
4,"C=C1CC[C@]2(C(=O)O)CC[C@]3(C)C(=CC[C@@H]4[C@@]5(C)C[C@@H](O)[C@@H](OC(=O)/C=C/c6ccc(O)c(OC)c6)C(C)(C)[C@@H]5CC[C@]43C)[C@@H]2[C@H]1C [Compound 6, 3α-trans-feruloyloxy-2α-hydroxy-12,20(30)-ursadien-28-oic acid]",34 ± 4.88
5,"C[C@H]1[C@H](C)CC[C@]2(C(=O)O)CC[C@]3(C)C(=CC[C@@H]4[C@@]5(C)C[C@@H](O)[C@H](OC(=O)/C=C\c6ccc(O)cc6)C(C)(C)[C@@H]5CC[C@]43C)[C@H]12 [Compound 10, 3β-O-cis-p-coumaroyl-2α-hydroxy-urs-12-en-28-oic acid]",19.2 ± 0.22

# Next, values leading:
row,IC50 [µM],SMILES
1,17.1 ± 1.67,"C=C1CC[C@]2(C(=O)O)CC[C@]3(C)C(=CC[C@@H]4[C@@]5(C)C[C@@H](O)[C@@H](OC(=O)/C=C/c6ccc(O)cc6)C(C)(C)[C@@H]5CC[C@]43C)[C@@H]2[C@H]1C [Compound 15, 3α-trans-coumaroyloxy-2α-hydroxy-12,20(30)-dien-28-ursolic acid]"
2,10.3 ± 1.21,"COc1cc(/C=C/C(=O)O[C@H]2[C@H](O)C[C@]3(C)[C@H]4CC=C5[C@@H]6[C@@H](C)[C@H](C)CC[C@]6(C(=O)O)CC[C@@]5(C)[C@]4(C)CC[C@H]3C2(C)C)ccc1O [Compound 13, 3β-O-trans-feruloyl-2α-hydroxy-urs-12-en-28-oic acid]"
3,16.2 ± 0.57,"COc1cc(/C=C\C(=O)O[C@H]2[C@H](O)C[C@]3(C)[C@H]4CC=C5[C@@H]6[C@@H](C)[C@H](C)CC[C@]6(C(=O)O)CC[C@@]5(C)[C@]4(C)CC[C@H]3C2(C)C)ccc1O [Compound 12, 3β-O-cis-feruloyl-2α-hydroxy-urs-12-en-28-oic acid]"
